Test results published in patent publication US20250090681A1, “NEODEGRADER CONJUGATES” (Orum Therapeutics, Inc., priority 2021, published 2025).

Target: T1, GSPT1 (Homo sapiens, UniProt P15170+Q96SW2)
T1 construct: Whole cell lysates were prepared from MV4-11 CD33-positive AML cells; endogenous in cells; host or cells: MV4-11 (CD33-positive AML cells)
Test: GSPT1 degradation by western blot in MV4-11 cells
Format: cell-based
Details: FIG. 8
Source text: GSPT1 was probed by commercially available rabbit-anti-GSPT1 antibody (Abcam) followed by anti-rabbit HRP conjugated secondary antibody (Cell Signaling Technology) and detected by chemiluminescent substrate (ThermoFisher). PVDF membrane was then stripped and re-probed with beta-Actin-HRP conjugated antibody (Cell Signaling Technology).

T1 sequence (P15170 whole entry): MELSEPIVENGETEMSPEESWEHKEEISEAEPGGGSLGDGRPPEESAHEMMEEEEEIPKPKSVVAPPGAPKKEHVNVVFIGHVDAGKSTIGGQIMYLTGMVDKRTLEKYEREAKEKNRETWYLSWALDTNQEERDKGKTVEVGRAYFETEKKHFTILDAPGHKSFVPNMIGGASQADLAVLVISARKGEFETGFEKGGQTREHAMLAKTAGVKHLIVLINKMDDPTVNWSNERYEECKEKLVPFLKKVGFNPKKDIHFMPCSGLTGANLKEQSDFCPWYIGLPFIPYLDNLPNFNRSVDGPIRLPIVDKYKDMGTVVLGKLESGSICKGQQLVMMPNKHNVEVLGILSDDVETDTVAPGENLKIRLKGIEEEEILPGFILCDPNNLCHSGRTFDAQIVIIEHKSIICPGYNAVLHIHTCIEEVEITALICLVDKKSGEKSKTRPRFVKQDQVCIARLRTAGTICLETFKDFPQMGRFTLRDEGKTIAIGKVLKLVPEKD
T1 sequence (Q96SW2 whole entry): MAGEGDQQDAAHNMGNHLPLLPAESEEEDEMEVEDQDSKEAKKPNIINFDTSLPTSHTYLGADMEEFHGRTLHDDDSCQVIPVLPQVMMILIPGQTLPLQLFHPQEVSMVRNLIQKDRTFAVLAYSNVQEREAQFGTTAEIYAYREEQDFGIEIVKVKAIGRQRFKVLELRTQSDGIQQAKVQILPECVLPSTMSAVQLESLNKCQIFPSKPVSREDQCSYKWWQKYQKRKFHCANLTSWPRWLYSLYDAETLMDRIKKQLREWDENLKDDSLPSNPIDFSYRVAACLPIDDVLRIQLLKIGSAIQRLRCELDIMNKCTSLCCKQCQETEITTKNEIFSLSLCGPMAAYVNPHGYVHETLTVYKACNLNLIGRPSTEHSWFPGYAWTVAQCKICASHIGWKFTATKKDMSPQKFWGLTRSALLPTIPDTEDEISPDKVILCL
T1 sequence (Q16531 whole entry partner): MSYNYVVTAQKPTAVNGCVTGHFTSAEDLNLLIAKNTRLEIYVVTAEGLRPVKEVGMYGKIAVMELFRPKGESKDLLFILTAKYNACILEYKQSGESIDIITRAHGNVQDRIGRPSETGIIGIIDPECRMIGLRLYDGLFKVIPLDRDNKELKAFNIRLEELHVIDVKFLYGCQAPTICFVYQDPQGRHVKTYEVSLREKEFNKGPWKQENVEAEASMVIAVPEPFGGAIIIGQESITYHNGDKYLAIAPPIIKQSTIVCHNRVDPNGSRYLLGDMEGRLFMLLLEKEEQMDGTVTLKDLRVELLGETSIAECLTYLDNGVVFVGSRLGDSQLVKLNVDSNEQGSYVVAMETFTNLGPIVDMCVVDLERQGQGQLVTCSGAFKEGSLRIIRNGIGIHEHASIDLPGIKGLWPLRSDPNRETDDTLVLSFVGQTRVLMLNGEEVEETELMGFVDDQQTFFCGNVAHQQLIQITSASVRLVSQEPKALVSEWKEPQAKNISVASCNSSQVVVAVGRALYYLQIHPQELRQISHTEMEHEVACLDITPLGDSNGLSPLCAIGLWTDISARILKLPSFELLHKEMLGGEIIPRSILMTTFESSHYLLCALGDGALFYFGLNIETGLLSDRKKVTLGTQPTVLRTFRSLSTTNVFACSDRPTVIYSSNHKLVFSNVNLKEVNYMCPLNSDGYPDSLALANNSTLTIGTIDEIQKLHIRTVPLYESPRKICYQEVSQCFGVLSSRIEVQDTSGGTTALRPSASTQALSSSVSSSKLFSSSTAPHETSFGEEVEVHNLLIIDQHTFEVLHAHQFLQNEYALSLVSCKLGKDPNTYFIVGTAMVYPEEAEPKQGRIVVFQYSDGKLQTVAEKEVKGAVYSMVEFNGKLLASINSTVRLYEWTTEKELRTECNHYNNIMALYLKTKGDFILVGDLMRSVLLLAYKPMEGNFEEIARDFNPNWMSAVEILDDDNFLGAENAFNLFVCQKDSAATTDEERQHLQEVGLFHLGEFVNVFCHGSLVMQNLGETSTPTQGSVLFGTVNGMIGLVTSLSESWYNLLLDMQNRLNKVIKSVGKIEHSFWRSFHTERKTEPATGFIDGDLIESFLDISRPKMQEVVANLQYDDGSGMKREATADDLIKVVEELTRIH

Compound: CNCCOCCc1ccc(NC(=O)NCc2ccc3c(c2)CN(C2CCC(=O)NC2=O)C3=O)cc1Cl (centres unmarked) [neoDegrader P1, 1-(3-chloro-4-[2-[2-(methylamino)ethoxy]ethyl]phenyl)-3-[[2-(2,6-dioxopiperidin-3-yl)-1-oxo-3H-isoindol-5-yl]methyl]urea]
- durability of GSPT1 depletion (MV4-11 cells, 6, 12 and 18 hours): transient depletion
- decreases in GSPT1 levels (MV4-11 cells, as short as 6 hours post-dosing): dose-dependent decreases
